# Experimental data taken from EP4660196A1, “CRYSTAL FORM OF COMPOUND, PREPARATION METHOD THEREFOR AND USE THEREOF” (Felicamed Biotechnology Co., Ltd., priority 2023, dated 2024).
# Where “and” joins values, the source holds several entries; their conditions need not be identical. Equal values may be shown once. Read-outs that look alike come from different tables or passages of the source.
# Assays:
# [1] = assay type: physicochemical; settings: for S: solubility: 1440 min; for FC: crystal transfer: XRPD of solid; for pH: pH of filtrate
# [2] = Urine and fecal excretion after single intragastric administration; settings: dog, po, 6 mg/kg
# Method: The preparations were freshly prepared on the day of administration, and sampled for determination of preparation concentration.
# Six Beagle dogs (half male and half female) were fasted overnight in metabolic cages the day before the experiment. Before administration, urine and feces of each animal were collected as baseline (0 h) samples. On the day of administration, Beagle dogs received single intragastric administration of the drug at 6 mg/kg. Four hours after administration, the animals resumed feeding and had free access to water during the experiment.
# After urine collection is completed, the volume was measured and recorded. Part of the collected urine was taken, methanol was added to dilute the urine in a urine-to-methanol volume ratio of 4: 1 (v/v). After vortex mixing, the mixture was divided into 2 portions. After fecal samples at different time periods were collected, the food residues on the surface were removed and the feces were weighed. […] After the last sampling of the urine and feces excretion experimental group was completed, the metabolic cages were rinsed with 2000 mL of water: ethanol (1: 1, v: v) and the rinse solution of each cage was collected. After the rinse solution was thoroughly shaken, 1 mL was immediately taken, placed into a 1.5 mL EP tube, and stored in a -90°C to 60°C refrigerator together with the urine and feces homogenate until sample analysis.
# The drug concentration in the excretion samples of the animal in each group at different time periods was detected by LC-MS/MS, and an excretion rate and a cumulative excretion rate in each time period were calculated.
# [3] = Mechanical stability (grinding, tableting at 350 MPa, XRPD); assay type: physicochemical
# [4] = assay type: physicochemical; settings: 37°C; for S: solubility: calculated as free form; for FC: crystal transfer: XRPD of solid; for pH: pH of filtrate
# [5] = DVS
# Method: DVS isotherms were collected on an SMS (Surface Measurement Systems) DVS Intrinsic. Relative humidity at 25°C was calibrated using the deliquescence points of LiCl, Mg(NO3)2, and KCl. Table 9 DVS testing parameters
# [6] = Solid-state stability (XRPD, UPLC purity); settings: for Crystal form Transform: XRPD; for Purity (area%): starting purity 99.82 (hydrochloride), 99.72 (free); for Area (%): UPLC main peak (#Peak 1, RRT 1.00)
# in vivo = assay: in vivo; parameters: species or system Sprague-Dawely rats; settings: rat, po
# Text: Sprague-Dawely rats (SPF grade) used in this experiment were purchased from Zhejiang Charles River Experimental Animal Technology Co., Ltd. with the production license No. SCXK (Zhe) 2019-0001 and the animal qualification certificate No. 20220107Aazz0619000738 and 20220107Aazz0619000691. A body weight range of males was 206.6 g to 234.5 g, and a body weight range of females was 188.4 g to 205.9 g.
# In this experiment, all animals were randomly divided into 5 groups (5 animals/sex/group), received the drug at 97 mg/kg, 174 mg/kg, 312 mg/kg, 559 mg/kg, and 1000 mg/kg, respectively, and received signal intragastric administration orally. […] All animals received administration according to their latest weighed body weight. The drug was stirred for at least 10 min before administration, and continuously stirred during administration until the administration of the sample at this concentration was completed. […]
# All animals underwent a comprehensive physical examination by a veterinarian before administration. […] All surviving animals were weighed once on the day of random grouping (Day-1), Day 1 (before administration), Day 3, Day 5, Day 7, and Day 8; and their 24±1-hour food consumption was measured once on Day 1 (Day 1 to Day 2), Day 2 (Day 2 to Day 3), and Day 6 (Day 6 to Day 7). […]
# [7] = for Carr index: (tapped density - bulk density) / tapped density; for Average angle of repose (°) / Average bulk density / Average tapped density: mean of three tests
# Method: A method for testing the density and the tapped density included: (1) a certain mass of to-be-assessed sample was placed into a 5 mL measuring cylinder, and the volume at this moment was recorded. The bulk density was calculated by dividing the mass of the sample by the volume at this moment. (2) The measuring cylinder was slightly tapped 200 times, the final volume was recorded, and the tapped density was calculated by dividing the mass of the sample by the final volume. (3) Three parallel tests were conducted. A method for testing the angle of repose included: (1) a funnel was fixed vertically to a bottom surface, and the material was slowly placed into the funnel. (2) A well-proportioned cone of the material was formed on the bottom surface. The height and bottom surface diameter of the cone were measured. (3) Three parallel tests were conducted.
# Angle of repose α = […], where h is the cone height, and D is the cone diameter.
# [8] = single values of three parallel tests
smiles,measurement,setting,value
CC[S@@](=N)(=O)C[C@H]1CC[C@H](N(C)c2ncnc3[nH]ccc23)CC1 [Free crystal form A],S: solubility,"[1]; Buffer (pH=4.5), room temperature, 24 h, calculated as free form",>9100 µg/mL
same,FC: crystal transfer,"[1]; Buffer (pH=2.0), 24 h",No
same,FC: crystal transfer,"[1]; Buffer (pH=7.4), 24 h",No
same,S: solubility,"[1]; buffer, pH 2, 1440 min",6200 µg/mL
same,S: solubility,"[1]; buffer, pH 4.5, 1440 min",> 9100 µg/mL
same,pH,"[1]; Buffer (pH=2.0), room temperature, 24 h",5.6
same,pH,"[1]; Buffer (pH=4.5), room temperature, 24 h",5.0
same,pH,"[1]; Buffer (pH=7.4), room temperature, 24 h",7.4
same,dose excreted at 120 h,[2]; cage rinse solution,4.87 ± 3.09%
same,dose excreted at 120 h,[2]; feces,3.48 ± 0.663%
same,dose excreted at 120 h,[2]; urine and feces,47.3 ± 9.62%
same,dose excreted at 120 h,"[2]; urine, feces, cage rinse",52.2%
same,dose excreted at 120 h,[2]; urine,43.8 ± 9.97%
same,Results of mechanical stability After grinding,[3]; manual grinding,"The crystal form remains unchanged, but the crystallinity is slightly reduced"
same,Results of mechanical stability After tableting,"[3]; tablet press, 350 MPa","The crystal form remains unchanged, but the crystallinity is slightly reduced"
same,S: solubility,"[4]; FaSSIF, 1 h, 60 min",2200 µg/mL
same,S: solubility,"[4]; FaSSIF, 2 h, 120 min",2200 µg/mL
same,S: solubility,"[4]; FaSSIF, 4 h, 240 min",2300 µg/mL
same,S: solubility,"[4]; FaSSIF, 24 h, 1440 min",2400 µg/mL
same,S: solubility,"[4]; H2O, 1 h, 60 min",2100 µg/mL
same,S: solubility,"[4]; H2O, 2 h, 120 min",2100 µg/mL
same,S: solubility,"[4]; H2O, 4 h, 240 min",2200 µg/mL
same,S: solubility,"[4]; H2O, 24 h, 1440 min",2400 µg/mL
same,FC: crystal transfer,"[4]; FaSSIF, 1 h",No
same,FC: crystal transfer,"[4]; FaSSIF, 2 h",No
same,FC: crystal transfer,"[4]; FaSSIF, 4 h",No
same,FC: crystal transfer,"[4]; FaSSIF, 24 h",No
same,FC: crystal transfer,"[4]; FeSSIF, 1 h",No
same,FC: crystal transfer,"[4]; FeSSIF, 2 h",No
same,FC: crystal transfer,"[4]; FeSSIF, 4 h",No
same,FC: crystal transfer,"[4]; FeSSIF, 24 h",No
same,FC: crystal transfer,"[4]; H2O, 1 h",No
same,FC: crystal transfer,"[4]; H2O, 2 h",No
same,FC: crystal transfer,"[4]; H2O, 4 h",No
same,FC: crystal transfer,"[4]; H2O, 24 h",No
same,FC: crystal transfer,"[4]; SGF, 1 h",No
same,FC: crystal transfer,"[4]; SGF, 2 h",No
same,FC: crystal transfer,"[4]; SGF, 4 h",No
same,FC: crystal transfer,"[4]; SGF, 24 h",No
same,pH,"[4]; FaSSIF, 1 h",6.6
same,pH,"[4]; FaSSIF, 2 h",6.6
same,pH,"[4]; FaSSIF, 4 h",6.6
same,pH,"[4]; FaSSIF, 24 h",6.6
same,pH,"[4]; FeSSIF, 1 h",5.3
same,pH,"[4]; FeSSIF, 2 h",5.3
same,pH,"[4]; FeSSIF, 4 h",5.3
same,pH,"[4]; FeSSIF, 24 h",5.3
same,pH,"[4]; H2O, 1 h",6.7
same,pH,"[4]; H2O, 2 h",6.6
same,pH,"[4]; H2O, 4 h",6.7
same,pH,"[4]; H2O, 24 h",7.3
same,pH,"[4]; SGF, 1 h",5.1
same,pH,"[4]; SGF, 2 h",5.2
same,pH,"[4]; SGF, 4 h",5.2
same,pH,"[4]; SGF, 24 h",5.2
same,Hygroscopic weight gain (wt%) at 25°C/80% RH,[5],0.39 wt%
same,Hygroscopic weight gain (wt%) at 25°C/80% RH,[5]; listed as free crystal form A,0.39 wt%
same,Crystal form Transform,"[6]; 25°C/60% RH/4 weeks, open",No
same,Purity (area%),"[6]; 25°C/60% RH/4 weeks, open",99.71 area%
same,Crystal form Transform,"[6]; 40°C/75% RH/4 weeks, open",No
same,Purity (area%),"[6]; 40°C/75% RH/4 weeks, open",99.72 area%
same,Crystal form Transform,"[6]; 80°C/1 d, closed",No
same,Area (%),[6]; 25°C/60% RH/4 weeks,99.71%
same,Area (%),[6]; 40°C/75% RH/4 weeks,99.72%
same,Area (%),[6]; 80°C/1 d,99.71%
same,MTD at 168 h,in vivo,174 mg/kg
same,Carr index,[7],51%
same,Carr index,[7]; listed as free crystal form A,51%
same,Average angle of repose (°),[7],47.1 °
same,Average bulk density,[7],0.11 g/mL
same,Average tapped density,[7],0.23 g/mL
same,Average angle of repose (°),[7]; listed as free crystal form A,47.1 °
same,Average bulk density,[7]; listed as free crystal form A,0.11 g/mL
same,Average tapped density,[7]; listed as free crystal form A,0.23 g/mL
same,Angle of repose (°),[7]; [8],49.0 ° and 47.3 ° and 45.0 °
same,Bulk density,[7]; [8],0.11 g/mL
same,Tapped density,"[7]; tapped 200 times, single values of three parallel tests",0.23 g/mL and 0.22 g/mL
